Among the test systems are SW-620; LOX IMVI; OVCAR-4; HCT-15; OVCAR-3; UO-31; CAKI-1; 786-0; SF-268; PC-3; HL-60; NCI-H460; HT-29; RPMI-8226; RXF 393; COLO 205; UACC-257; NCI-H226; DU-145; HCT-116.
What all share (assay): inhibition of tumour cell growth, NCI panel, 48 h

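Where inhibition never reached the appropriate level, the endpoint shown equals the highest concentration tested. Otherwise, values were interpolated linearly from a five-concentration, 48-hour dose response in 96-well plates. Here, GI50 denotes the concentration required for 50% inhibition of growth.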 Activity calls are given as the source filed them. Cut-off read from the data, not from the text of the source: active = GI50 up to about 1.1 µM and inactive = higher. Where a SMILES comes first, the peptide text is derived from it. The star is where a group is joined. Boc = CC(C)(C)OC(=O)*; tBu = CC(C)(C)*

`COc1cc(O)cc(O)c1C(=O)CC(Cl)(Cl)Cl`: the GI50 in the test with SW-620 was > 100 µM (inactive); in the test on LOX IMVI, > 100 µM (inactive); in the test on OVCAR-4, > 100 µM (inactive); with HCT-15, > 100 µM; in the test with OVCAR-3 it was > 100 µM (inactive); in the test on UO-31, > 100 µM (inactive). The GI50 with CAKI-1, in the test on 786-0, in the test with SF-268, with PC-3, in the test on HL-60 and in the test with NCI-H460 was > 100 µM (inactive) each time. Further, the GI50 in the test on HT-29 was > 100 µM (inactive); in the test on RPMI-8226 it was 40.1 µM (inactive); with RXF 393, > 100 µM (inactive); in the test with COLO 205, > 100 µM (inactive); with UACC-257, > 100 µM (inactive); with NCI-H226 it was > 100 µM (inactive). For the same molecule, the GI50 in the test on DU-145 and in the test on HCT-116 was > 100 µM (inactive) each time.
For the molecule `COc1ccc(/C=C/C(=O)c2cc(OC)cc(OC)c2)cc1`, the GI50 is 0.64 µM (active) with SW-620; 1.35 µM (inactive) in the test with LOX IMVI; 3.45 µM (inactive) in the test with OVCAR-4; 0.543 µM with HCT-15; 4.02 µM (inactive) with OVCAR-3; 3.27 µM (inactive) in the test with UO-31. The GI50 in the test on CAKI-1 is 2.59 µM (inactive); with 786-0 it was 1.16 µM (inactive); with SF-268 it was 5.4 µM (inactive); with PC-3 it was 6.12 µM (inactive); in the test with HL-60 it was 0.151 µM (active); with NCI-H460, 2.9 µM (inactive). The GI50 was 1.91 µM (inactive) in the test on HT-29; 0.646 µM (active) in the test on RPMI-8226; 3.33 µM (inactive) in the test with RXF 393; 4.56 µM (inactive) with COLO 205; 13.6 µM (inactive) with UACC-257; 10.2 µM (inactive) in the test on NCI-H226. Moreover, the GI50 was 3.24 µM (inactive) with DU-145 and 1.22 µM (inactive) in the test with HCT-116.
Turning to `N#C/C(=C1\N=C(c2ccccc2O)Oc2ccccc21)c1ccc([N+](=O)[O-])cc1`, the GI50 with SW-620 is > 100 µM (inactive); in the test on LOX IMVI it was > 100 µM (inactive); in the test on OVCAR-4, 41.9 µM (inactive); in the test on HCT-15 it was > 100 µM; in the test with OVCAR-3 it was > 100 µM (inactive); in the test with UO-31 it was > 100 µM (inactive). Besides, the GI50 is > 100 µM (inactive) with CAKI-1; 93.8 µM (inactive) with 786-0; > 100 µM (inactive) in the test with SF-268; > 100 µM (inactive) in the test on PC-3; > 100 µM (inactive) in the test with HL-60; > 100 µM (inactive) in the test with NCI-H460. Further, the GI50 with HT-29, in the test with RPMI-8226, with RXF 393, in the test on COLO 205, in the test on UACC-257 and in the test with NCI-H226 was > 100 µM (inactive) each time. Besides, the GI50 in the test with DU-145 and in the test with HCT-116 was > 100 µM (inactive) in each case.
Turning to `O=C1/C(=C\c2ccc(-c3ccc(Cl)cc3Cl)o2)SC2NC(COc3ccc(Cl)cc3)=NN12` (stereo not given), the GI50 with SW-620 was 60.7 µM (inactive); in the test with LOX IMVI it was 52.1 µM (inactive); in the test with OVCAR-4, 45.3 µM (inactive); in the test on HCT-15 it was 34.9 µM; with OVCAR-3, 36 µM (inactive); with UO-31, > 100 µM (inactive). The GI50 in the test on CAKI-1 is 51.1 µM (inactive); in the test on 786-0 it was 51.2 µM (inactive); with SF-268, 36 µM (inactive); in the test on PC-3, 64.7 µM (inactive); in the test on HL-60, 22.5 µM (inactive); in the test on NCI-H460, 38.5 µM (inactive). Also, the GI50 in the test with HT-29 is 79.4 µM (inactive); with RPMI-8226 it was 38.4 µM (inactive); with RXF 393, 27.5 µM (inactive); in the test on COLO 205, 41.5 µM (inactive); in the test with UACC-257, 21.1 µM (inactive); in the test with NCI-H226, 20.2 µM (inactive). Moreover, the GI50 in the test on DU-145 was 65.6 µM (inactive); in the test on HCT-116, 48.4 µM (inactive).
As to `CO/N=[N+](\[O-])NC(C)C`, the GI50 in the test on SW-620 is > 100 µM (inactive); in the test with LOX IMVI, > 100 µM (inactive); with OVCAR-4, > 100 µM (inactive); with HCT-15, > 100 µM; with OVCAR-3 it was > 100 µM (inactive); in the test with UO-31 it was 5.42 µM (inactive). The GI50 with CAKI-1, in the test with 786-0, in the test with SF-268, in the test on PC-3, in the test with HL-60 and in the test with NCI-H460 was > 100 µM (inactive) in each case. Also, the GI50 with HT-29, in the test on RPMI-8226, in the test on RXF 393, with COLO 205, in the test with UACC-257 and in the test on NCI-H226 was > 100 µM (inactive) throughout. For the same molecule, the GI50 with DU-145 and in the test on HCT-116 was > 100 µM (inactive) throughout.
In the case of `COc1c(C)c(OC)c2c(c1O)[C@@H]1[C@@H]3Cc4c(OC)c(C)c(OC)c(O)c4[C@H](CNC(=O)c4cnc5ccccc5n4)N3[C@@H](C#N)[C@H](C2)N1C`, the GI50 with SW-620 is 0.002 µM (active); with LOX IMVI, 0.00108 µM (active); in the test with OVCAR-4 it was 0.002 µM (active); in the test on HCT-15, 0.00826 µM; in the test with OVCAR-3 it was 0.00214 µM (active); in the test with UO-31, 0.0064 µM (active). For the same molecule, the GI50 was 0.00536 µM (active) with CAKI-1; 0.00412 µM (active) in the test on 786-0; 0.00354 µM (active) with SF-268; 0.00433 µM (active) in the test with PC-3; 0.00153 µM (active) in the test on HL-60; 0.004 µM (active) in the test with NCI-H460. In addition, the GI50 was 0.00206 µM (active) with HT-29; 0.000634 µM (active) in the test with RPMI-8226; 0.00341 µM (active) in the test on RXF 393; 0.00119 µM (active) with COLO 205; 0.00296 µM (active) in the test with UACC-257; 0.00246 µM (active) in the test on NCI-H226. Further, the results for the GI50 in the test on DU-145 and in the test on HCT-116 were 0.0026 µM (active) and 0.00222 µM (active), respectively.
In the case of `O=C(O)C1C2C=CC(O2)C1C(=O)NCc1cccnc1` (stereo not given), the GI50 was > 100 µM (inactive) in the test with SW-620; > 100 µM (inactive) with LOX IMVI; > 100 µM (inactive) in the test on OVCAR-4; > 100 µM with HCT-15; > 100 µM (inactive) with OVCAR-3; > 100 µM (inactive) with UO-31. Also, the GI50 in the test on CAKI-1, in the test with 786-0, in the test on SF-268, in the test on PC-3, with HL-60 and in the test on NCI-H460 was > 100 µM (inactive) each time. Moreover, the GI50 was > 100 µM (inactive) with HT-29; > 100 µM (inactive) in the test on RPMI-8226; > 100 µM (inactive) with RXF 393; > 100 µM (inactive) with COLO 205; 72.6 µM (inactive) in the test with UACC-257; > 100 µM (inactive) with NCI-H226. In addition, the GI50 with DU-145 and in the test on HCT-116 was > 100 µM (inactive) throughout.
Take `C=C1CC[C@@H]2C13[C@@H]1[C@H](CC(=O)[C@@]23C)C1(C)C` (stereo not given in full): the GI50 with SW-620 is 51.4 µM (inactive); in the test on LOX IMVI, > 100 µM (inactive); in the test with OVCAR-4 it was 15.5 µM (inactive); with HCT-15, > 100 µM; with OVCAR-3 it was 21.6 µM (inactive); in the test with UO-31, 16.4 µM (inactive). Further, the GI50 was > 100 µM (inactive) in the test on CAKI-1; 55.1 µM (inactive) in the test with 786-0; > 100 µM (inactive) with SF-268; > 100 µM (inactive) with PC-3; > 100 µM (inactive) in the test with HL-60; > 100 µM (inactive) in the test on NCI-H460. In addition, the GI50 in the test on HT-29 is > 100 µM (inactive); in the test with RPMI-8226 it was > 100 µM (inactive); in the test with RXF 393, 43.6 µM (inactive); in the test with COLO 205, 84.5 µM (inactive); with UACC-257, > 100 µM (inactive); in the test with NCI-H226, > 100 µM (inactive). Further, the GI50 in the test on DU-145 and in the test with HCT-116 was > 100 µM (inactive) each time.
Consider `O=C(O)c1cc(=O)c2c(OCC(O)COc3cccc4oc(C(=O)O)cc(=O)c34)cccc2o1`, for which the GI50 in the test with SW-620 is > 83 µM (inactive); in the test with LOX IMVI, > 61.4 µM (inactive); with OVCAR-4 it was > 100 µM (inactive); in the test with HCT-15 it was > 100 µM; with OVCAR-3 it was > 100 µM (inactive); with UO-31, > 100 µM (inactive). The GI50 in the test with CAKI-1, with 786-0, in the test with SF-268, in the test with PC-3, in the test on HL-60 and in the test on NCI-H460 was > 100 µM (inactive) in each case. Further, the GI50 in the test with HT-29 was > 75.7 µM (inactive); in the test with RPMI-8226, > 70.1 µM (inactive); with RXF 393, > 100 µM (inactive); with COLO 205, > 68.4 µM (inactive); in the test with UACC-257, > 80.4 µM (inactive); with NCI-H226, > 100 µM (inactive). Besides, the results for the GI50 in the test with DU-145 and in the test on HCT-116 were > 100 µM (inactive) and > 74.8 µM (inactive), respectively.
As to `CC(OC(C)(C)C)C(NC(=O)C(N)CCCCNC(=O)OC(C)(C)C)C(=O)NC(Cc1ccccc1)C(=O)O` (stereo not given) (H-Lys(Boc)-Thr(tBu)-Phe-OH; configuration not given here), the GI50 with SW-620 was > 100 µM (inactive); in the test on LOX IMVI, > 100 µM (inactive); with OVCAR-4, > 100 µM (inactive); in the test with HCT-15 it was > 100 µM; in the test on OVCAR-3 it was > 100 µM (inactive); with UO-31, > 100 µM (inactive). For the same molecule, the GI50 with CAKI-1, with 786-0, with SF-268, in the test on PC-3, in the test with HL-60 and in the test on NCI-H460 was > 100 µM (inactive) throughout. For the same molecule, the GI50 in the test on HT-29, with RPMI-8226, in the test with RXF 393, with COLO 205, with UACC-257 and in the test with NCI-H226 was > 100 µM (inactive) throughout. For the same molecule, the GI50 in the test on DU-145 and in the test with HCT-116 was > 100 µM (inactive) throughout.

The record behind these values is ChEMBL document CHEMBL1201862, “PubChem BioAssay data set” (2004).
